From patent publication US5539125A, “1-azabicyclo[3.3.0]octan derivative, salt thereof, process for the preparation of same and use thereof as hypermotility agents” (Sanwa Kagaku Kenkyusho Co., Ltd., priority 1994, dated 1996) come the findings set out here.

SMILES strings stand for the structures. Counter-ions that a name gives are not always drawn.

T1 sequence (Q62758 whole entry): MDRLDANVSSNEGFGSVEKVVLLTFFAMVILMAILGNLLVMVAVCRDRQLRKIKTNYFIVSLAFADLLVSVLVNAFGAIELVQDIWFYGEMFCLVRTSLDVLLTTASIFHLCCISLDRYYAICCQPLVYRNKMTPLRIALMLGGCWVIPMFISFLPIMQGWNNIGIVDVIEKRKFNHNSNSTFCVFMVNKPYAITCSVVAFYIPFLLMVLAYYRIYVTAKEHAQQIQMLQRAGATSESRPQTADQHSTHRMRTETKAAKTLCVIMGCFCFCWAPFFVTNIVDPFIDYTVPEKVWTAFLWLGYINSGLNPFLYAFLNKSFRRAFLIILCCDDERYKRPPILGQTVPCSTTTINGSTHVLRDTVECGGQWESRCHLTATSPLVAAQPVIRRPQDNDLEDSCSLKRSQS

One series concerns the target T1, 5-HT4 receptor (Rattus norvegicus, UniProt Q62758).
T1 construct: muscular sample of mucous membrane in esophgus exentrated from a rat; from tissue; host or cells: rat oesophagus, muscularis mucosae (isolated tissue contracted with carbachol)
Briefly: Agonisting Action to 5-HT4 Receptor: relaxation of carbachol-contracted muscular sample of mucous membrane in rat esophagus. Particulars: negative logarithm of concentration causing 50% relaxation. The source says: Pharmacol.", Vol. 343, page 439 (1991)].
Namely, a relaxation of the Test and Control compounds in various concentration showing to carbachol contradiction of a muscular sample of mucous membrane in esophgus exentrated from a rat was checked to calculate a concentration causing 50% relaxation and compared with its negative logarithm (P EC50).
In the case of `CCOc1c(C(=O)NCCC23CCCN2CCC3)cc(Cl)c2c1CCN2` [Example 2, N-[2-(1-Azabicyclo[3.3.0]octan-5-yl)ethyl]-7-chloro-2,3-dihydro-4-ethoxyindole-5-carboxamide. 1/2 fumarate], it took 5.01 µM to reach a half-maximal effect (EC50).
As to `Cc1oc2c(C(=O)NCCC34CCCN3CCC4)ccc(N)c2c1Cl` [Example 3, 4-Amino-N-[2-(1-Azabicyclo[3.3.0]octan-5-yl)ethyl]-3-chloro-2-methylbenzo[b]furan-7-carboxamide.1/2 fumarate], the EC50 was 2 µM.
The compound `Cc1cc2c(N)c(Cl)cc(C(=O)NCCC34CCCN3CCC4)c2o1` [Example 4, 4-Amino-N-[2-(1-azabicyclo[3.3.0]octan-5-yl)ethyl]-5-chloro-2-methylbenzo[b]furan-7-carboxamide. 1/2 fumarate] gave an EC50 of 0.0398 µM.
In turn, `C=CCc1c(N)c(Cl)cc(C(=O)NCCC23CCCN2CCC3)c1OC` [Example 8, 4-Amino-N-[2-(1-azabicyclo[3.3.0]octan-5-yl)ethyl]-5-chloro-2-methoxy-3-(2-propenyl)benzamide. 1/2 fumarate] returned a pEC50 of 6.3.
Same read-out and setting: the figure for `C=CCc1c(N)c(Cl)cc(C(=O)NCCC23CCCN2CCC3)c1OCC` [Example 9, 4-Amino-N-[2-(1-azabicyclo[3.3.0]octan-5-yl)ethyl]-5-chloro-2-ethoxy-3-(2-propenyl)benzamide. 1/2 fumarate] is 6.3.
`Cc1oc2c(C(=O)NCCC34CCCN3CCC4)cc(Cl)c(N)c2c1Cl` [Example 5, 4-Amino-N-[2-(1-azabicyclo[3.3.0]octan-5yl)ethyl]-3,5-dichloro-2-methylbenzo[b]furan-7-carboxamide. 1/2 fumarate] gave an EC50 of 0.794 µM.
Take `CCCc1c(N)c(Cl)cc(C(=O)NCCC23CCCN2CCC3)c1OCC` [Example 7, 4-Amino-N-[2-(1-azabicyclo[3.3.0]octan-5-yl)ethyl]-5-chloro-2-ethoxy-3-propylbenzamide. 1/2 fumarate]: the EC50 was 0.398 µM.
Same read-out and setting: the figure for `CCCc1c(N)c(Cl)cc(C(=O)NCCC23CCCN2CCC3)c1OC` [Example 6, 4-Amino-N-[2-(1-azabicyclo[3.3.0]octan-5-yl)ethyl]-5-chloro-2-methoxy-3-propylbenzamide. 1/2 fumarate] is 0.501 µM; for `COc1c(C(=O)NCCC23CCCN2CCC3)cc(Cl)c2c1CCN2` [Example 1, N-[2-(1-Azabicyclo[3.3.01]octan-5-yl)ethyl]-7-chloro-2,3-dihydro-4-methoxyindole-5-carboxamide. 1/2 fumarate] it is 5.01 µM.

A further series relates to dopamine D2 receptor.
Experiment: not given
The conditions noted are these: rat, in vivo, po, 100 mg/kg. The text has this:
The compounds (salts) obtained by Examples as well as known compound (Metoclopramide) were selected as Test and Control Compounds, respectively. The compound was orally administered to rats to observe for 2 days general symptoms including catalepsy and blepharoptosis due to antagonistic action of the compound to dopamine D2 receptor.
For the compound `CCN(CC)CCNC(=O)c1cc(Cl)c(N)cc1OC` [Metoclopramide, 4-amino-5-chloro-N-[(2-diethylamino)ethyl]-2-methoxybenzamide], the “influence to central nerve system due to anti-dopamine action” value was “somewhat remarkable influence was recognized”.
